Laboratory results as given in patent US20230295087A1, “AGONISTS OF ROR GAMMAt” (BRISTOL-MYERS SQUIBB COMPANY, priority 2019, published 2023).

Each molecule was assayed against T1, human RORgT (Homo sapiens, UniProt P51449) (assay: RORgT Gal4 Luciferase Reporter Gene Assay). Conditions: engineered Jurkat cells overexpressing RORgT (LBD or full length) fused with Gal4 Luc reporter; 18 hours at 37° C.; luminescence.
T1 construct: expressed in transfected cells
T1 sequence (P51449 267-516): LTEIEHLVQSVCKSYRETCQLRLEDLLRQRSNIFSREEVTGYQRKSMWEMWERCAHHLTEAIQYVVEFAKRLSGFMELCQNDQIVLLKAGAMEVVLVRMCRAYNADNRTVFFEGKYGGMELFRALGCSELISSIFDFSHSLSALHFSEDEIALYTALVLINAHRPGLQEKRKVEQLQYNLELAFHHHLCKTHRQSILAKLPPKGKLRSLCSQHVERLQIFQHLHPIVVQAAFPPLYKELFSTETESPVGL
Type: cell-based
Method in brief: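 Jurkat cells expressing Gal4 Luc with either RORgT LBD (aa267-516) or full-length human RORgT, 10,000 cells/well, treated with compound (40 µM to 0.67 nM final, 3-fold dilutions) for 18 h at 37° C. Steady-Glo luminescence read; inhibition of constitutive activity as % signal-window reduction relative to a control compound.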

Molecule | EC50 [nM]
NS(=O)(=O)CC(=O)N1CC[C@@]2(S(=O)(=O)c3ccc(F)cc3)c3ccc(OCc4cc(Cl)ccc4Cl)cc3CC[C@@H]12 [Example 209, 2-[(3aR,9bR)-7-[(2,5-dichlorophenyl)methoxy]-9b-(4-fluorobenzenesulfonyl)-1H,2H,3H,3aH,4H,5H,9bH-benzo[e]indol-3-yl]-2-oxoethane-1-sulfonamide] | 124
NC(=O)N1CCC(C(=O)N2CC[C@@]3(S(=O)(=O)c4ccc(F)cc4)c4ccc(OCc5cc(F)c(F)cc5Cl)cc4CC[C@@H]23)CC1 [Example 210, 4-[(3aR,9bR)-7-[(2-chloro-4,5-difluorophenyl)methoxy]-9b-(4-fluorobenzenesulfonyl)-1H,2H,3H,3aH,4H,5H,9bH-benzo[e]indole-3-carbonyl] piperidine-1-carboxamide] | 9.9
NS(=O)(=O)CC(=O)N1CC[C@@]2(S(=O)(=O)c3ccc(F)cc3)c3ccc(OCc4cc(F)c(F)cc4Cl)cc3CC[C@@H]12 [Example 211, 2-[(3aR,9bR)-7-[(2-chloro-4,5-difluorophenyl)methoxy]-9b-(4-fluorobenzenesulfonyl)-1H,2H,3H,3aH,4H,5H,9bH-benzo[e]indol-3-yl]-2-oxoethane-1-sulfonamide] | 110
CN1CCC(C(=O)N2CC[C@@]3(S(=O)(=O)c4ccc(F)cc4)c4ccc(OCc5cc(F)c(F)cc5Cl)cc4CC[C@@H]23)CC1 [Example 212, 4-[(3aR,9bR)-7-[(2-chloro-4,5-difluorophenyl)methoxy]-9b-(4-fluorobenzenesulfonyl)-1H,2H,3H,3aH,4H,5H,9bH-benzo[e]indole-3-carbonyl]-1-methylpiperidine] | 160
O=C(C1CCS(=O)(=O)C1)N1CC[C@@]2(S(=O)(=O)c3ccc(F)cc3)c3ccc(OCc4cc(F)c(F)cc4Cl)cc3CC[C@@H]12 (stereo partly drawn) [Example 213, 3-[(3aR,9bR)-7-[(2-chloro-4,5-difluorophenyl)methoxy]-9b-(4-fluorobenzenesulfonyl)-1H,2H,3H,3aH,4H,5H,9bH-benzo[e]indole-3-carbonyl]-1λ^6-thiolane-1,1-dione] | 4.9
CC(=O)N1CCC(C(=O)N2CC[C@@]3(S(=O)(=O)c4ccc(F)cc4)c4ccc(OCc5c(F)cc(F)cc5Cl)cc4CC[C@@H]23)CC1 [Example 214, 1-{4-[(3aR,9bR)-7-[(2-chloro-4,6-difluorophenyl)methoxy]-9b-(4-fluorobenzenesulfonyl)-1H,2H,3H,3aH,4H,5H,9bH-benzo[e]indole-3-carbonyl]piperidin-1-yl}ethan-1-one] | 5.3
CN1CCC(C(=O)N2CC[C@@]3(S(=O)(=O)c4ccc(F)cc4)c4ccc(OCc5c(F)cc(F)cc5Cl)cc4CC[C@@H]23)CC1 [Example 215, 4-[(3aR,9bR)-7-[(2-chloro-4,6-difluorophenyl)methoxy]-9b-(4-fluorobenzenesulfonyl)-1H,2H,3H,3aH,4H,5H,9bH-benzo[e]indole-3-carbonyl]-1-methylpiperidine] | 157
CS(=O)(=O)CC(=O)N1CC[C@@]2(S(=O)(=O)c3ccc(F)cc3)c3ccc(OCc4cc(F)c(F)cc4Cl)cc3CC[C@@H]12 [Example 216, 1-[(3aR,9bR)-7-[(2-chloro-4,5-difluorophenyl)methoxy]-9b-(4-fluorobenzenesulfonyl)-1H,2H,3H,3aH,4H,5H,9bH-benzo[e]indol-3-yl]-2-methanesulfonylethan-1-one] | 266
CS(=O)(=O)CC(=O)N1CC[C@@]2(S(=O)(=O)c3ccc(F)cc3)c3ccc(OCc4c(F)cc(F)cc4Cl)cc3CC[C@@H]12 [Example 217, 1-[(3aR,9bR)-7-[(2-chloro-4,6-difluorophenyl)methoxy]-9b-(4-fluorobenzenesulfonyl)-1H,2H,3H,3aH,4H,5H,9bH-benzo[e]indol-3-yl]-2-methanesulfonylethan-1-one] | 168
O=C(C1CCS(=O)(=O)C1)N1CC[C@@]2(S(=O)(=O)c3ccc(F)cc3)c3ccc(OCc4c(F)cc(F)cc4Cl)cc3CC[C@@H]12 (stereo partly drawn) [Example 218, 3-[(3aR,9bR)-7-[(2-chloro-4,6-difluorophenyl)methoxy]-9b-(4-fluorobenzenesulfonyl)-1H,2H,3H,3aH,4H,5H,9bH-benzo[e]indole-3-carbonyl]-1λ^6-thiolane-1,1-dione] | 12
CC(=O)N1CCC(C(=O)N2CC[C@@]3(S(=O)(=O)c4ccc(F)cc4)c4ccc(OCc5cc(F)c(F)cc5Cl)cc4CC[C@@H]23)CC1 [Example 219, 1-{4-[(3aR,9bR)-7-[(2-chloro-4,5-difluorophenyl)methoxy]-9b-(4-fluorobenzenesulfonyl)-1H,2H,3H,3aH,4H,5H,9bH-benzo[e]indole-3-carbonyl]piperidin-1-yl}ethan-1-one] | 53
NC(=O)N1CCC(C(=O)N2CC[C@@]3(S(=O)(=O)c4ccc(F)cc4)c4ccc(OCc5c(F)cc(F)cc5Cl)cc4CC[C@@H]23)CC1 [Example 220, 4-[(3aR,9bR)-7-[(2-chloro-4,6-difluorophenyl)methoxy]-9b-(4-fluorobenzenesulfonyl)-1H,2H,3H,3aH,4H,5H,9bH-benzo[e]indole-3-carbonyl]piperidine-1-carboxamide] | 13
O=C(CN1CCS(=O)(=O)CC1)N1CC[C@@]2(S(=O)(=O)c3ccc(F)cc3)c3ccc(OCc4cc(F)c(F)cc4Cl)cc3CC[C@@H]12 [Example 221, 4-{2-[(3aR,9bR)-7-[(2-chloro-4,5-difluorophenyl)methoxy]-9b-(4-fluorobenzenesulfonyl)-1H,2H,3H,3aH,4H,5H,9bH-benzo[e]indol-3-yl]-2-oxoethyl}-1λ^6-thiomorpholine-1,1-dione] | 34
[2H]C([2H])(Oc1ccc2c(c1)CC[C@H]1N(C(=O)[C@H]3CC[C@H](C(=O)O)CC3)CC[C@@]21S(=O)(=O)c1ccc(F)cc1)c1c(F)cccc1Cl [Example 222] | 3.9
(1R,4r)-4-((3aR,9bR)-7-((2-chloro-6-fluorobenzyl)oxy)-9b-((4-fluorophenyl)sulfonyl)-2,3,3a,4,5,9b-hexahydro-1H-benzo[e]indole-3-carbonyl)-1-methylcyclohexanecarboxylic acid [Example 8] | 12
